Results published in patent US12077503B2, “Substituted cyclic amides and their use as herbicides” (FMC CORPORATION, priority 2015, dated 2024).
Where two headings read alike, the source gives them in different places.

Assays:
Format in all cases: in vivo
Kochia (Kochia scoparia) [1] = assay: Test A preemergence; settings: Bassia scoparia, pre-emergence, 240 h; for pest or weed control at 125 g/ha: 125 g ai/ha, visual rating after approx. 10 d, 0 to 100 scale where 0 is no effect and 100 is complete control; for pest or weed control at 500 g/ha: 500 g ai/ha
Outline: (§1)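 Preemergence directed soil spray on seeded pots, or postemergence application to plants 2–10 cm, one- to two-leaf. Solvent mixture non-phytotoxic, with surfactant. Scored ~10 d later, visually, 0–100 vs untreated.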

[2] = test system: barnyardgrass (Echinochloa crus-galli); assay: Test A preemergence; settings: Echinochloa crus-galli, pre-emergence, 240 h; for pest or weed control at 125 g/ha: 125 g ai/ha, visual rating after approx. 10 d, 0 to 100 scale where 0 is no effect and 100 is complete control; for pest or weed control at 500 g/ha: 500 g ai/ha
Outline: as §1

[3] = test system: giant foxtail (Setaria faberii); assay: Test A preemergence; settings: Setaria faberi, pre-emergence, 240 h; for pest or weed control at 125 g/ha: 125 g ai/ha, visual rating after approx. 10 d, 0 to 100 scale where 0 is no effect and 100 is complete control; for pest or weed control at 500 g/ha: 500 g ai/ha
Outline: as §1

[4] = test system: pigweed (Amaranthus retroflexus); assay: Test A preemergence; settings: Amaranthus retroflexus, pre-emergence, 240 h; for pest or weed control at 125 g/ha: 125 g ai/ha, visual rating after approx. 10 d, 0 to 100 scale where 0 is no effect and 100 is complete control; for pest or weed control at 500 g/ha: 500 g ai/ha
[5] = test system: ragweed (common ragweed, Ambrosia elatior); assay: Test A preemergence; settings: Ambrosia artemisiifolia, pre-emergence, 240 h; for pest or weed control at 125 g/ha: 125 g ai/ha, visual rating after approx. 10 d, 0 to 100 scale where 0 is no effect and 100 is complete control; for pest or weed control at 500 g/ha: 500 g ai/ha
Outline: as §1

[6] = test system: ryegrass, Italian (Italian ryegrass, Lolium multiflorum); assay: Test A preemergence; settings: Lolium multiflorum, pre-emergence, 240 h; for pest or weed control at 125 g/ha: 125 g ai/ha, preemergence, visual rating after approx. 10 d, 0 to 100 scale where 0 is no effect and 100 is complete control, read-out: Plant response rating, Ryegrass, Italian
Outline: as §1

[7] = test system: Galium (catchweed bedstraw, Galium aparine); assay: Test A postemergence; settings: Galium, post-emergence, 240 h, 125 g ai/ha, postemergence; visual injury after approximately 10 d; 0 to 100 scale (0 no effect, 100 complete control); read-out: Plant response rating, Galium
Outline: as §1

Kochia (Kochia scoparia) [8] = assay: Test A postemergence; settings: Bassia scoparia, post-emergence, 240 h, 125 g ai/ha, postemergence; visual injury after approximately 10 d; 0 to 100 scale (0 no effect, 100 complete control); read-out: Plant response rating, Kochia
Outline: as §1

[9] = test system: barnyardgrass (Echinochloa crus-galli); assay: Test A postemergence; settings: Echinochloa crus-galli, post-emergence, 240 h, 125 g ai/ha, postemergence; visual injury after approximately 10 d; 0 to 100 scale (0 no effect, 100 complete control); read-out: Plant response rating, Barnyardgrass
Outline: as §1

[10] = test system: blackgrass (Alopecurus myosuroides); assay: Test A postemergence; settings: Alopecurus myosuroides, post-emergence, 240 h, 125 g ai/ha, postemergence; visual injury after approximately 10 d; 0 to 100 scale (0 no effect, 100 complete control); read-out: Plant response rating, Blackgrass
Outline: as §1

corn (Zea mays) = assay: Test A postemergence; settings: Zea mays, post-emergence, 240 h, 125 g ai/ha, postemergence; visual injury after approximately 10 d; 0 to 100 scale (0 no effect, 100 complete control)
Outline: as §1

[11] = test system: giant foxtail (Setaria faberii); assay: Test A postemergence; settings: Setaria faberi, post-emergence, 240 h, 125 g ai/ha, postemergence; visual injury after approximately 10 d; 0 to 100 scale (0 no effect, 100 complete control); read-out: Plant response rating, Foxtail, Giant
Outline: as §1

[12] = test system: pigweed (Amaranthus retroflexus); assay: Test A postemergence; settings: Amaranthus retroflexus, post-emergence, 240 h, 125 g ai/ha, postemergence; visual injury after approximately 10 d; 0 to 100 scale (0 no effect, 100 complete control); read-out: Plant response rating, Pigweed
Outline: as §1

[13] = test system: ragweed (common ragweed, Ambrosia elatior); assay: Test A postemergence; settings: Ambrosia artemisiifolia, post-emergence, 240 h, 125 g ai/ha, postemergence; visual injury after approximately 10 d; 0 to 100 scale (0 no effect, 100 complete control); read-out: Plant response rating, Ragweed
Outline: as §1

[14] = test system: ryegrass, Italian (Italian ryegrass, Lolium multiflorum); assay: Test A postemergence; settings: Lolium multiflorum, post-emergence, 240 h, 125 g ai/ha, postemergence; visual injury after approximately 10 d; 0 to 100 scale (0 no effect, 100 complete control); read-out: Plant response rating, Ryegrass, Italian
Outline: as §1

[15] = test system: wheat (Triticum aestivum); assay: Test A postemergence; settings: Triticum aestivum, post-emergence, 240 h, 125 g ai/ha, postemergence; visual injury after approximately 10 d; 0 to 100 scale (0 no effect, 100 complete control); read-out: Plant response rating, Wheat
Outline: as §1

[16] = preemergence, read-out: Plant response rating, Kochia
[17] = preemergence, read-out: Plant response rating, Barnyardgrass
[18] = preemergence, read-out: Plant response rating, Foxtail, Giant
[19] = preemergence, read-out: Plant response rating, Pigweed
[20] = preemergence, read-out: Plant response rating, Ragweed

CC(F)(F)c1cccc([C@H]2CNC(=O)[C@@H]2C(=O)Nc2ccccc2F)c1 [Compound 782]
100%: pest or weed control at 500 g/ha ([3]; Preemergence, visual injury vs untreated controls after approximately 10 d, read-out: Foxtail, Giant plant response rating (0 to 100 scale where 0 is no effect and 100 is complete control))
90%: pest or weed control at 500 g/ha (Kochia (Kochia scoparia) [1]; Preemergence, visual injury vs untreated controls after approximately 10 d, read-out: Kochia plant response rating (0 to 100 scale where 0 is no effect and 100 is complete control)) | pest or weed control at 500 g/ha ([2]; Preemergence, visual injury vs untreated controls after approximately 10 d, read-out: Barnyardgrass plant response rating (0 to 100 scale where 0 is no effect and 100 is complete control)) | pest or weed control at 125 g/ha [3, 18] | pest or weed control at 125 g/ha [9] | pest or weed control at 125 g/ha [11]
20%: pest or weed control at 500 g/ha ([5]; Preemergence, visual injury vs untreated controls after approximately 10 d, read-out: Ragweed plant response rating (0 to 100 scale where 0 is no effect and 100 is complete control))
70%: pest or weed control at 125 g/ha [7] | pest or weed control at 125 g/ha [10]
10%: pest or weed control at 125 g/ha (Kochia (Kochia scoparia) [8])
60%: pest or weed control at 500 g/ha ([6]; 500 g ai/ha, Preemergence, visual injury vs untreated controls after approximately 10 d, read-out: Ryegrass, Italian plant response rating (0 to 100 scale where 0 is no effect and 100 is complete control)) | Corn plant response rating (crop injury, 0 = no effect, 100 = complete kill) at 125 g/ha (corn (Zea mays)) | plant injury at 125 g/ha [15]
0%: pest or weed control at 125 g/ha [4, 19] | pest or weed control at 125 g/ha [5, 20] | pest or weed control at 125 g/ha [12] | pest or weed control at 125 g/ha [13]
80%: pest or weed control at 125 g/ha (Kochia (Kochia scoparia) [1]; [16]) | pest or weed control at 125 g/ha [2, 17]
40%: pest or weed control at 125 g/ha [6] | pest or weed control at 125 g/ha [14]
50%: pest or weed control at 500 g/ha ([4]; Preemergence, visual injury vs untreated controls after approximately 10 d, read-out: Pigweed plant response rating (0 to 100 scale where 0 is no effect and 100 is complete control))

O=C1NC[C@H](c2ccc3c(c2)OCO3)[C@H]1C(=O)Nc1ccccc1F [Compound 767]
0%: pest or weed control at 125 g/ha (Kochia (Kochia scoparia) [1]; [16]) | pest or weed control at 500 g/ha (Kochia (Kochia scoparia) [1]; preemergence, 0 to 100 scale, 0 = no effect, 100 = complete control, read-out: Plant response rating, Kochia) | pest or weed control at 125 g/ha [3, 18] | pest or weed control at 125 g/ha [4, 19] | pest or weed control at 500 g/ha ([4]; preemergence, 0 to 100 scale, 0 = no effect, 100 = complete control, read-out: Plant response rating, Pigweed) | pest or weed control at 125 g/ha [5, 20] | pest or weed control at 500 g/ha ([5]; preemergence, 0 to 100 scale, 0 = no effect, 100 = complete control, read-out: Plant response rating, Ragweed) | pest or weed control at 125 g/ha [6] | pest or weed control at 125 g/ha [7] | pest or weed control at 125 g/ha (Kochia (Kochia scoparia) [8]) | pest or weed control at 125 g/ha [10] | Corn plant response rating (crop injury, 0 = no effect, 100 = complete kill) at 125 g/ha (corn (Zea mays)) | pest or weed control at 125 g/ha [11] | pest or weed control at 125 g/ha [12] | pest or weed control at 125 g/ha [13] | pest or weed control at 125 g/ha [14] | plant injury at 125 g/ha [15]
90%: pest or weed control at 125 g/ha [2, 17] | pest or weed control at 500 g/ha ([2]; preemergence, 0 to 100 scale, 0 = no effect, 100 = complete control, read-out: Plant response rating, Barnyardgrass) | pest or weed control at 500 g/ha ([3]; preemergence, 0 to 100 scale, 0 = no effect, 100 = complete control, read-out: Plant response rating, Foxtail, Giant)
70%: pest or weed control at 125 g/ha [9]
